Laboratory results: article PMC9250534, “Synthesis and direct assay of large macrocycle diversities by combinatorial late-stage modification at picomole scale” (Nature Communications, 2022)
Numbered stars: 1 amine (or outer) side, 2 acyl side, 3 side chain; on linkers, the order of the positions; unused ones are H or OH. Bridge positions count the residues as written; N and C are the ends. Square brackets hold non-standard residues; d marks the D form. Peptide text beside a SMILES is read from it. * marks the point of attachment. ξ: configuration not given here. Pro(4S-NHCO(5-Cl-2-thienyl)) = O=C(N[C@@H]1CN[C@H](C(=O)O)C1)c1ccc(Cl)s1; ξPro(4-NHCO(5-Cl-2-thienyl)) = O=C(NC1CNC(C(=O)O)C1)c1ccc(Cl)s1; 2Thenoyl(5-Cl) = O=C(c1ccc(Cl)s1)*; Benzoyl(4-Cl) = O=C(c1ccc(Cl)cc1)*; Cysteamide = C(CS[*:3])N[*:1]; X1 = O=C(/C=C/c1ccccc1)*; Api = NC1(C(=O)O)CCNCC1; Dap = NC[C@H](N)C(=O)O; X2 = O=C(C=Cc1ccccc1)*; Mpa = O=C(O)CCS

Molecular target: MDM2 (Homo sapiens, UniProt Q00987)
Test: MDM2 binding screen: displacement of fluorescent p53 peptide probe FP53 (fluorescence polarization)
Conditions: crude macrocycle reactions; for fraction fluorescent probe displaced, Screen: initial screen
Procedure, shortened: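 Single-point screen: one fluorescence anisotropy reading at 25 °C (485 nm excitation, 535 nm emission) per macrocycle. Crude macrocycle reactions, final 10 µM, were scored for displacing the fluorescent p53 peptide from human MDM2.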

MDM2, sequence (Q00987 whole entry): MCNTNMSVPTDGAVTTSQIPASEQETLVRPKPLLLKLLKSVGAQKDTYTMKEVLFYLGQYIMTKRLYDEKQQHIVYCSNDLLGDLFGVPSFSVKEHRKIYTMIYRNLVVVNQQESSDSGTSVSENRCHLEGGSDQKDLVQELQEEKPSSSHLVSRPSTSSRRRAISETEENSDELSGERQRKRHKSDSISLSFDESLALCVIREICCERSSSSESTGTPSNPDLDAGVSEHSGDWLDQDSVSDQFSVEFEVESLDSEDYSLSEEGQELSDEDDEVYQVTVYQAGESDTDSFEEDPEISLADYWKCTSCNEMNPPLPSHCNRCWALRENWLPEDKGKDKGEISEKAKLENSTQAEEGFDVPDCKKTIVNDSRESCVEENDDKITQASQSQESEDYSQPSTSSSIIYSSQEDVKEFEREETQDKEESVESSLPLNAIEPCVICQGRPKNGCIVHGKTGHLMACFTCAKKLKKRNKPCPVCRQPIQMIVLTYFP

Row | Compound | fraction fluorescent probe displaced, Screen (Acid 25) | fraction fluorescent probe displaced, Replicate (Acid 25) | fraction fluorescent probe displaced, Screen (Acid 14) | fraction fluorescent probe displaced, Replicate (Acid 14) | fraction fluorescent probe displaced, Screen (Acid 91) | fraction fluorescent probe displaced, Replicate (Acid 91)
1 | O=C1CCSSCCNC(=O)[C@@H]2C[C@H](NC(=O)c3ccc(Cl)cc3)CN2C(=O)c2cccc(c2)CNC(=O)[C@H](Cc2ccccc2)N1 [X F B5 D5 Acid 25] | 0.0244 | -0.00432 |  |  |  | 
2 | O=C1CCSSCCNC(=O)C2(CCN(C(=O)c3ccc(Cl)s3)CC2)NC(=O)c2cccc(c2)CNC(=O)C(Cc2ccccc2)N1 (stereo not drawn) [X F B5 D6 Acid 14] |  |  | 0.11 | 0.10 |  | 
3 | O=C1CCSSCCNC(=O)C2(CCN(C(=O)c3ccc(Cl)cc3)CC2)NC(=O)c2cccc(c2)CNC(=O)[C@H](Cc2ccccc2)N1 [X F B5 D6 Acid 25] | 0.0569 | 0.0465 |  |  |  | 
4 | O=C1CCSSCCNC(=O)C2(CCN(C(=O)/C=C/c3ccccc3)CC2)NC(=O)c2cccc(c2)CNC(=O)[C@H](Cc2ccccc2)N1 [X F B5 D6 Acid 91] |  |  |  |  | -0.08 | -0.00827
5 | O=C1CCSSCCNC(=O)C2CN(C(=O)C=Cc3ccccc3)CCN2C(=O)c2cccc(c2)CNC(=O)C(Cc2ccccc2)N1 (stereo not drawn) [X F B5 D7 Acid 91] |  |  |  |  | -0.10 | -0.0333
6 | O=C1CCSSCCNC(=O)[C@@H]2CCCN2C(=O)[C@H](CNC(=O)c2ccc(Cl)s2)NC(=O)[C@H](Cc2ccccc2)N1 [X F D3 B1 Acid 14] ([Mpa]F[Dap](2Thenoyl(5-Cl))P-Cysteamide; disulfide 1-C) |  |  | 0.08 | 0.10 |  | 
7 | O=C1CCSSCCNC(=O)[C@@H]2CCCN2C(=O)[C@H](CNC(=O)c2ccc(Cl)cc2)NC(=O)[C@H](Cc2ccccc2)N1 [X F D3 B1 Acid 25] ([Mpa]F[Dap](Benzoyl(4-Cl))P-Cysteamide; disulfide 1-C) | 0.0569 | 0.15 |  |  |  | 
8 | O=C(/C=C/c1ccccc1)NC[C@@H]1NC(=O)[C@H](Cc2ccccc2)NC(=O)CCSSCCNC(=O)[C@@H]2CCCN2C1=O [X F D3 B1 Acid 91] ([Mpa]F[Dap](X1)P-Cysteamide; disulfide 1-C) |  |  |  |  | -0.0241 | -0.00827
9 | O=C1CCNC(=O)C(CNC(=O)c2ccc(Cl)s2)NC(=O)C(Cc2ccccc2)NC(=O)CCSSCCN1 (stereo not drawn) [X F D3 B2 Acid 14] |  |  | 0.053 | 0.0465 |  | 
10 | O=C1CCNC(=O)[C@H](CNC(=O)c2ccc(Cl)cc2)NC(=O)[C@H](Cc2ccccc2)NC(=O)CCSSCCN1 [X F D3 B2 Acid 25] | 0.19 | 0.0211 |  |  |  | 
11 | O=C1CCSSCCNC(=O)[C@H]2CCCN(C2)C(=O)[C@H](CNC(=O)c2ccc(Cl)s2)NC(=O)[C@H](Cc2ccccc2)N1 [X F D3 B4 Acid 14] |  |  | 0.053 | 0.10 |  | 
12 | O=C1CCSSCCNC(=O)[C@H]2CCCN(C2)C(=O)[C@H](CNC(=O)c2ccc(Cl)cc2)NC(=O)[C@H](Cc2ccccc2)N1 [X F D3 B4 Acid 25] | 0.12 | 0.10 |  |  |  | 
13 | O=C(/C=C/c1ccccc1)NC[C@@H]1NC(=O)[C@H](Cc2ccccc2)NC(=O)CCSSCCNC(=O)[C@H]2CCCN(C2)C1=O [X F D3 B4 Acid 91] |  |  |  |  | 0.11 | -0.0333
14 | O=C1CCSSCCNC(=O)c2cccc(c2)CNC(=O)[C@H](CNC(=O)c2ccc(Cl)s2)NC(=O)[C@H](Cc2ccccc2)N1 [X F D3 B5 Acid 14] |  |  | 0.0241 | -0.03 |  | 
15 | O=C1CCSSCCNC(=O)c2cccc(c2)CNC(=O)[C@H](CNC(=O)c2ccc(Cl)cc2)NC(=O)[C@H](Cc2ccccc2)N1 [X F D3 B5 Acid 25] | 0.0569 | 0.07 |  |  |  | 
16 | O=C1CCSSCCNC(=O)[C@@H]2CCCN2C(=O)[C@@H]2C[C@H](NC(=O)c3ccc(Cl)s3)CN2C(=O)[C@H](Cc2ccccc2)N1 [X F D5 B1 Acid 14] ([Mpa]F[Pro(4S-NHCO(5-Cl-2-thienyl))]P-Cysteamide; disulfide 1-C) |  |  | 0.14 | 0.0465 |  | 
17 | O=C(C=Cc1ccccc1)NC1CC2C(=O)N3CCCC3C(=O)NCCSSCCC(=O)NC(Cc3ccccc3)C(=O)N2C1 (stereo not drawn) [X F D5 B1 Acid 91] |  |  |  |  | -0.05 | -0.11
18 | O=C(C=Cc1ccccc1)NC1CC2C(=O)NCCC(=O)NCCSSCCC(=O)NC(Cc3ccccc3)C(=O)N2C1 (stereo not drawn) [X F D5 B2 Acid 91] |  |  |  |  | 0.08 | 0.0168

The remaining lines, values ahead:

Row | fraction fluorescent probe displaced, Screen (Acid 25) | fraction fluorescent probe displaced, Replicate (Acid 25) | fraction fluorescent probe displaced, Screen (Acid 14) | fraction fluorescent probe displaced, Replicate (Acid 14) | fraction fluorescent probe displaced, Screen (Acid 91) | fraction fluorescent probe displaced, Replicate (Acid 91) | Compound
19 |  |  | -0.00483 | 0.0211 |  |  | O=C1CCSSCCNC(=O)C2CCCN(C2)C(=O)C2CC(NC(=O)c3ccc(Cl)s3)CN2C(=O)C(Cc2ccccc2)N1 (stereo not drawn) [X F D5 B4 Acid 14]
20 |  |  | -0.00483 | -0.00432 |  |  | O=C1CCSSCCNC(=O)c2cccc(c2)CNC(=O)C2CC(NC(=O)c3ccc(Cl)s3)CN2C(=O)C(Cc2ccccc2)N1 (stereo not drawn) [X F D5 B5 Acid 14]
21 |  |  |  |  | -0.05 | -0.0333 | O=C(C=Cc1ccccc1)NC1CC2C(=O)NCc3cccc(c3)C(=O)NCCSSCCC(=O)NC(Cc3ccccc3)C(=O)N2C1 (stereo not drawn) [X F D5 B5 Acid 91]
22 | 0.0244 | 0.17 |  |  |  |  | O=C1CCSSCCNC(=O)[C@@H]2CCCN2C(=O)C2(CCN(C(=O)c3ccc(Cl)cc3)CC2)NC(=O)[C@H](Cc2ccccc2)N1 [X F D6 B1 Acid 25] ([Mpa]F[Api](Benzoyl(4-Cl))P-Cysteamide; disulfide 1-C)
23 |  |  |  |  | -0.08 | 0.04 | O=C1CCSSCCNC(=O)C2CCCN2C(=O)C2(CCN(C(=O)C=Cc3ccccc3)CC2)NC(=O)C(Cc2ccccc2)N1 (stereo not drawn) [X F D6 B1 Acid 91] ([Mpa]F[Api](X2)P-Cysteamide; disulfide 1-C; configuration not given here)
24 |  |  | -0.00483 | 0.0465 |  |  | O=C1CCNC(=O)C2(CCN(C(=O)c3ccc(Cl)s3)CC2)NC(=O)[C@H](Cc2ccccc2)NC(=O)CCSSCCN1 [X F D6 B2 Acid 14]
25 |  |  |  |  | 0.03 | -0.00827 | O=C1CCNC(=O)C2(CCN(C(=O)/C=C/c3ccccc3)CC2)NC(=O)[C@H](Cc2ccccc2)NC(=O)CCSSCCN1 [X F D6 B2 Acid 91]
26 |  |  | 0.053 | 0.10 |  |  | O=C1CCSSCCNC(=O)[C@H]2CCCN(C2)C(=O)C2(CCN(C(=O)c3ccc(Cl)s3)CC2)NC(=O)[C@H](Cc2ccccc2)N1 [X F D6 B4 Acid 14]
27 | -0.00813 | 0.07 |  |  |  |  | O=C1CCSSCCNC(=O)[C@H]2CCCN(C2)C(=O)C2(CCN(C(=O)c3ccc(Cl)cc3)CC2)NC(=O)[C@H](Cc2ccccc2)N1 [X F D6 B4 Acid 25]
28 |  |  | 0.053 | 0.0211 |  |  | O=C1CCSSCCNC(=O)c2cccc(c2)CNC(=O)C2(CCN(C(=O)c3ccc(Cl)s3)CC2)NC(=O)[C@H](Cc2ccccc2)N1 [X F D6 B5 Acid 14]
29 | -0.00813 | 0.12 |  |  |  |  | O=C1CCSSCCNC(=O)c2cccc(c2)CNC(=O)C2(CCN(C(=O)c3ccc(Cl)cc3)CC2)NC(=O)C(Cc2ccccc2)N1 (stereo not drawn) [X F D6 B5 Acid 25]
30 |  |  |  |  | -0.0241 | -0.0333 | O=C1CCSSCCNC(=O)c2cccc(c2)CNC(=O)C2(CCN(C(=O)/C=C/c3ccccc3)CC2)NC(=O)[C@H](Cc2ccccc2)N1 [X F D6 B5 Acid 91]
31 | -0.07 | 0.10 |  |  |  |  | O=C1CCNC(=O)C2CN(C(=O)c3ccc(Cl)cc3)CCN2C(=O)C(Cc2ccccc2)NC(=O)CCSSCCN1 (stereo not drawn) [X F D7 B2 Acid 25]
32 |  |  | -0.00483 | 0.12 |  |  | O=C1CCSSCCNC(=O)C2CCCN(C2)C(=O)C2CN(C(=O)c3ccc(Cl)s3)CCN2C(=O)C(Cc2ccccc2)N1 (stereo not drawn) [X F D7 B4 Acid 14]
33 |  |  | 0.14 | 0.22 |  |  | O=C1CCSSCCNC(=O)[C@H](CNC(=O)c2ccc(Cl)s2)NC(=O)[C@@H]2CCCN2C(=O)[C@H](Cc2c[nH]c3ccccc23)N1 [X W B1 D3 Acid 14] ([Mpa]WP[Dap](2Thenoyl(5-Cl))-Cysteamide; disulfide 1-C)
34 | 0.28 | 0.17 |  |  |  |  | O=C1CCSSCCNC(=O)[C@H](CNC(=O)c2ccc(Cl)cc2)NC(=O)[C@@H]2CCCN2C(=O)[C@H](Cc2c[nH]c3ccccc23)N1 [X W B1 D3 Acid 25] ([Mpa]WP[Dap](Benzoyl(4-Cl))-Cysteamide; disulfide 1-C)
35 |  |  |  |  | 0.19 | 0.12 | O=C(/C=C/c1ccccc1)NC[C@@H]1NC(=O)[C@@H]2CCCN2C(=O)[C@H](Cc2c[nH]c3ccccc23)NC(=O)CCSSCCNC1=O [X W B1 D3 Acid 91] ([Mpa]WP[Dap](X1)-Cysteamide; disulfide 1-C)
36 |  |  | 0.0241 | 0.17 |  |  | O=C1CCSSCCNC(=O)C2CC(NC(=O)c3ccc(Cl)s3)CN2C(=O)C2CCCN2C(=O)C(Cc2c[nH]c3ccccc23)N1 (stereo not drawn) [X W B1 D5 Acid 14] ([Mpa]WP[ξPro(4-NHCO(5-Cl-2-thienyl))]-Cysteamide; disulfide 1-C; configuration not given here)
